Experimental data as given in the NIST ThermoML archive (doi:10.1021/je9006037).
± gives the expanded uncertainty stated by the source.

Assay: refractive index (Na D-line) (dimensionless); xn = mol fraction of the nth substance listed
Settings: 101 kPa, Liquid

CCn1cc[n+](C)c1.O=S(=O)([O-])C(F)(F)F [1-ethyl-3-methylimidazolium trifluoromethanesulfonate] + CCCO
refractive index
Settings | 288.15 K | 298.15 K | 308.15 K | 318.15 K | 328.15 K | 338.15 K
x1 = 0.05007 | 1.39381 ± 0.0012 | 1.38991 ± 0.0012 | 1.38613 ± 0.0012 | 1.38243 ± 0.0012 | 1.37892 ± 0.0012 | 1.37545 ± 0.0012
x1 = 0.1013 | 1.39933 ± 0.0013 | 1.39557 ± 0.0013 | 1.39221 ± 0.0013 | 1.38877 ± 0.0013 | 1.38613 ± 0.0013 | 1.38306 ± 0.0013
x1 = 0.1503 | 1.40371 ± 0.0013 | 1.4001 ± 0.0013 | 1.3968 ± 0.0013 | 1.3938 ± 0.0013 | 1.39112 ± 0.0013 | 1.38856 ± 0.0013
x1 = 0.2001 | 1.40743 ± 0.0013 | 1.404 ± 0.0013 | 1.4009 ± 0.0013 | 1.39795 ± 0.0013 | 1.39522 ± 0.0013 | 1.39266 ± 0.0013
x1 = 0.2497 | 1.41088 ± 0.0013 | 1.40747 ± 0.0013 | 1.40434 ± 0.0013 | 1.40127 ± 0.0013 | 1.39872 ± 0.0013 | 1.39631 ± 0.0013
x1 = 0.3008 | 1.41391 ± 0.0013 | 1.41061 ± 0.0013 | 1.40747 ± 0.0013 | 1.40445 ± 0.0013 | 1.40173 ± 0.0013 | 1.39926 ± 0.0013
x1 = 0.3996 | 1.41854 ± 0.0013 | 1.41537 ± 0.0013 | 1.41218 ± 0.0013 | 1.40923 ± 0.0013 | 1.40634 ± 0.0013 | 1.40392 ± 0.0013
x1 = 0.4965 | 1.42297 ± 0.0013 | 1.41986 ± 0.0013 | 1.41681 ± 0.0013 | 1.41376 ± 0.0013 | 1.41082 ± 0.0013 | 1.4078 ± 0.0013
x1 = 0.602 | 1.42671 ± 0.0013 | 1.42372 ± 0.0013 | 1.42062 ± 0.0013 | 1.41752 ± 0.0013 | 1.41447 ± 0.0013 | 1.41163 ± 0.0013
x1 = 0.7043 | 1.42943 ± 0.0013 | 1.42647 ± 0.0013 | 1.42347 ± 0.0013 | 1.42076 ± 0.0013 | 1.41793 ± 0.0013 | 1.41508 ± 0.0013
x1 = 0.7945 | 1.43174 ± 0.0013 | 1.42886 ± 0.0013 | 1.42604 ± 0.0013 | 1.42323 ± 0.0013 | 1.4204 ± 0.0013 | 1.41758 ± 0.0013
x1 = 0.8421 | 1.4325 ± 0.0013 | 1.42963 ± 0.0013 | 1.4268 ± 0.0013 | 1.42398 ± 0.0013 | 1.42115 ± 0.0013 | 1.41838 ± 0.0013
x1 = 0.8988 | 1.43378 ± 0.0013 | 1.43096 ± 0.0013 | 1.42815 ± 0.0013 | 1.42533 ± 0.0013 | 1.42258 ± 0.0013 | 1.41984 ± 0.0013
x1 = 1 | 1.43599 ± 0.0013 | 1.43322 ± 0.0013 | 1.4304 ± 0.0013 | 1.42767 ± 0.0013 | 1.42494 ± 0.0013 | 1.42222 ± 0.0013
